Laboratory results: the supplement of paper PMC10307832

Experiments:
Experiment in all cases: relative viability (nuclei count vs DMSO), 5 days (fraction); higher = more cells survive
NCI-H2085 = system: NCI-H2085
Procedure, shortened: (§1)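 Values are medians from duplicate plates. Each reflects relative viability, defined as the nuclei count of treated wells over that of vehicle wells. Lung cancer cell lines in 1536-well plates were pin-tool dosed one day after seeding with one drug alone or with a fixed anchor-drug dose plus five library-drug doses (not always all listed) in √10 steps, then fixed, stained and imaged at 4× after 5 days.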

NCI-H1793 = system: NCI-H1793
Procedure, shortened: as §1

LCLC-103H = system: LCLC-103H
Procedure, shortened: as §1

SK-MES-1 = system: SK-MES-1
Procedure, shortened: as §1

NCI-H650 = system: NCI-H650
Procedure, shortened: as §1

NCI-H1944 = system: NCI-H1944
Procedure, shortened: as §1

ChaGo-K-1 = system: ChaGo-K-1
Procedure, shortened: as §1

LU99A = system: LU99A
Procedure, shortened: as §1

HCC-44 = system: HCC-44
Procedure, shortened: as §1

NCI-H2023 = system: NCI-H2023
Procedure, shortened: as §1

COR-L23 = system: COR-L23
Procedure, shortened: as §1

## O=c1cc(N2CCOCC2)oc2c(-c3cccc4c3sc3ccccc34)cccc12 + Cc1cc(Nc2cc(N3CCN(C)CC3)nc(Sc3ccc(NC(=O)C4CC4)cc3)n2)n[nH]1 [Tozasertib] (partner 0.1 µM)
NCI-H2085; first compound 0.1 µM
  relative viability: 0.741
NCI-H2085; first compound 0.3162 µM
  relative viability: 0.73
NCI-H2085; first compound 1 µM
  relative viability: 0.77
NCI-H1793; first compound 0.01 µM
  relative viability: 0.352
NCI-H1793; first compound 0.1 µM
  relative viability: 0.324
NCI-H1793; first compound 0.3162 µM
  relative viability: 0.312
NCI-H1793; first compound 1 µM
  relative viability: 0.276
LCLC-103H; first compound 0.01 µM
  relative viability: 0.425
LCLC-103H; first compound 0.03162 µM
  relative viability: 0.538
LCLC-103H; first compound 0.1 µM
  relative viability: 0.485
LCLC-103H; first compound 0.3162 µM
  relative viability: 0.504
LCLC-103H; first compound 1 µM
  relative viability: 0.457
SK-MES-1; first compound 0.01 µM
  relative viability: 0.964
SK-MES-1; first compound 0.03162 µM
  relative viability: 0.935
SK-MES-1; first compound 0.1 µM
  relative viability: 1.05
SK-MES-1; first compound 0.3162 µM
  relative viability: 0.897
SK-MES-1; first compound 1 µM
  relative viability: 0.875
NCI-H650; first compound 0.03162 µM
  relative viability: 0.763
NCI-H650; first compound 0.1 µM
  relative viability: 0.701
NCI-H650; first compound 0.3162 µM
  relative viability: 0.803
NCI-H650; first compound 1 µM
  relative viability: 0.704
NCI-H1944; first compound 0.01 µM
  relative viability: 0.246
NCI-H1944; first compound 0.03162 µM
  relative viability: 0.249
NCI-H1944; first compound 0.1 µM
  relative viability: 0.241
NCI-H1944; first compound 0.3162 µM
  relative viability: 0.245
NCI-H1944; first compound 1 µM
  relative viability: 0.244
ChaGo-K-1; first compound 0.01 µM
  relative viability: 0.232
ChaGo-K-1; first compound 0.03162 µM
  relative viability: 0.209
ChaGo-K-1; first compound 0.1 µM
  relative viability: 0.198
ChaGo-K-1; first compound 0.3162 µM
  relative viability: 0.222
ChaGo-K-1; first compound 1 µM
  relative viability: 0.209
LU99A; first compound 0.01 µM
  relative viability: 0.262
LU99A; first compound 0.03162 µM
  relative viability: 0.279
LU99A; first compound 0.1 µM
  relative viability: 0.273
LU99A; first compound 0.3162 µM
  relative viability: 0.303
LU99A; first compound 1 µM
  relative viability: 0.267
HCC-44; first compound 0.01 µM
  relative viability: 0.846
HCC-44; first compound 0.03162 µM
  relative viability: 1.05
HCC-44; first compound 0.1 µM
  relative viability: 1.12
HCC-44; first compound 0.3162 µM
  relative viability: 0.876
HCC-44; first compound 1 µM
  relative viability: 0.91
NCI-H2023; first compound 0.01 µM
  relative viability: 0.353
NCI-H2023; first compound 0.03162 µM
  relative viability: 0.402
NCI-H2023; first compound 0.1 µM
  relative viability: 0.438
NCI-H2023; first compound 0.3162 µM
  relative viability: 0.359
NCI-H2023; first compound 1 µM
  relative viability: 0.373
COR-L23; first compound 0.01 µM
  relative viability: 0.213
COR-L23; first compound 0.03162 µM
  relative viability: 0.231
COR-L23; first compound 0.1 µM
  relative viability: 0.18
COR-L23; first compound 0.3162 µM
  relative viability: 0.234
COR-L23; first compound 1 µM
  relative viability: 0.225
